According to ChEMBL document CHEMBL1201862, “PubChem BioAssay data set” (2004):
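Interpolation was linear, between the two tested concentrations surrounding the appropriate level; five concentrations were tested over 48 hours in 96-well plates. Abbreviation: GI50, concentration required for 50% inhibition of growth.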 The source made the active and inactive calls. No stated cut-off is given here; in the data, active = GI50 up to about 1.1 µM and inactive = higher.

Tests used:
Assay in all cases: NCI-60 cell line screen, 48 h
DMS-273 = test system: DMS-273
HT-29 = test system: HT-29
A549 = test system: A549
DLD-1 = test system: DLD-1
RPMI-8226 = test system: RPMI-8226
SNB-19 = test system: SNB-19
SW-620 = test system: SW-620
UACC-62 = test system: UACC-62
NCI-H23 = test system: NCI-H23
U-251 = test system: U-251
SNB-75 = test system: SNB-75
RXF 393 = test system: RXF 393
UO-31 = test system: UO-31
ACHN = test system: ACHN
LXFL 529 = test system: LXFL 529
MOLT-4 = test system: MOLT-4
HOP-92 = test system: HOP-92
SF-268 = test system: SF-268
OVCAR-5 = test system: OVCAR-5
LOX IMVI = test system: LOX IMVI
SF-295 = test system: SF-295
Malme-3M = test system: Malme-3M
KM-20L2 = test system: KM-20L2
OVCAR-4 = test system: OVCAR-4
HOP-62 = test system: HOP-62
NCI-H522 = test system: NCI-H522
HCT-15 = test system: HCT-15
OVCAR-8 = test system: OVCAR-8
CAKI-1 = test system: CAKI-1
SK-MEL-5 = test system: SK-MEL-5
DMS-114 = test system: DMS-114
HCT-116 = test system: HCT-116
OVCAR-3 = test system: OVCAR-3
UACC-257 = test system: UACC-257
NCI-H226 = test system: NCI-H226
HOP-18 = test system: HOP-18
NCI-H460 = test system: NCI-H460
COLO 205 = test system: COLO 205
SN12C = test system: SN12C
SNB-78 = test system: SNB-78
M19-MEL = test system: M19-MEL
TK-10 = test system: TK-10
CCRF-CEM = test system: CCRF-CEM
HL-60 = test system: HL-60
IGROV-1 = test system: IGROV-1
EKVX = test system: EKVX
SK-MEL-28 = test system: SK-MEL-28
KM12 = test system: KM12
786-0 = test system: 786-0
K562 = test system: K562
M14 = test system: M14
XF498 = test system: XF498
SF-539 = test system: SF-539
A498 = test system: A498
SK-OV-3 = test system: SK-OV-3
RXF 631 = test system: RXF 631
HCC 2998 = test system: HCC 2998
SK-MEL-2 = test system: SK-MEL-2

## COc1cc(/C=C\c2cccnc2)cc(OC)c1OC
DMS-273
  GI50: 33.1 µM (inactive)
HT-29
  GI50: 40.7 µM (inactive)
A549
  GI50: 42.1 µM (inactive)
DLD-1
  GI50: 72.1 µM (inactive)
RPMI-8226
  GI50: 19.6 µM (inactive)
SNB-19
  GI50: 83.9 µM (inactive)
SW-620
  GI50: 38.3 µM (inactive)
UACC-62
  GI50: 46.3 µM (inactive)
NCI-H23
  GI50: 66.8 µM (inactive)
U-251
  GI50: 33 µM (inactive)
SNB-75
  GI50: 58.3 µM (inactive)
RXF 393
  GI50: 22.6 µM (inactive)
UO-31
  GI50: 27.9 µM (inactive)
ACHN
  GI50: > 100 µM (inactive)
LXFL 529
  GI50: 48.1 µM (inactive)
MOLT-4
  GI50: 9.84 µM (inactive)
HOP-92
  GI50: 26 µM (inactive)
SF-268
  GI50: 77.1 µM (inactive)
OVCAR-5
  GI50: > 100 µM (inactive)
LOX IMVI
  GI50: 26.2 µM (inactive)
SF-295
  GI50: 36.6 µM (inactive)
Malme-3M
  GI50: 64.9 µM (inactive)
KM-20L2
  GI50: 33.8 µM (inactive)
OVCAR-4
  GI50: > 100 µM (inactive)
HOP-62
  GI50: 37.8 µM (inactive)
NCI-H522
  GI50: 25.3 µM (inactive)
HCT-15
  GI50: 39.4 µM
OVCAR-8
  GI50: 63.2 µM (inactive)
CAKI-1
  GI50: 44.5 µM (inactive)
SK-MEL-5
  GI50: 18.9 µM (inactive)
DMS-114
  GI50: 46.8 µM (inactive)
HCT-116
  GI50: 58.2 µM (inactive)
OVCAR-3
  GI50: 54 µM (inactive)
UACC-257
  GI50: 68.4 µM (inactive)
NCI-H226
  GI50: > 100 µM (inactive)
HOP-18
  GI50: > 100 µM (inactive)
NCI-H460
  GI50: 40.8 µM (inactive)
COLO 205
  GI50: 29.3 µM (inactive)
SN12C
  GI50: 42.6 µM (inactive)
SNB-78
  GI50: > 100 µM (inactive)
M19-MEL
  GI50: 76.7 µM (inactive)
TK-10
  GI50: > 100 µM (inactive)
CCRF-CEM
  GI50: 25.7 µM (inactive)
HL-60
  GI50: 18.9 µM (inactive)
IGROV-1
  GI50: 57.9 µM (inactive)
EKVX
  GI50: 38.1 µM (inactive)
SK-MEL-28
  GI50: 69.3 µM (inactive)
KM12
  GI50: 36.1 µM (inactive)
786-0
  GI50: 67.9 µM (inactive)
K562
  GI50: 24.5 µM (inactive)
M14
  GI50: 26.8 µM (inactive)
XF498
  GI50: 48.9 µM (inactive)
SF-539
  GI50: 36.6 µM (inactive)

## CN[C@@H](C)[C@@H](NC)c1ccccc1
DMS-273
  GI50: > 100 µM (inactive)
HT-29
  GI50: > 100 µM (inactive)
A549
  GI50: > 100 µM (inactive)
DLD-1
  GI50: > 100 µM (inactive)
RPMI-8226
  GI50: > 100 µM (inactive)
SW-620
  GI50: > 100 µM (inactive)
UACC-62
  GI50: > 100 µM (inactive)
NCI-H23
  GI50: > 100 µM (inactive)
U-251
  GI50: 1.52 µM (inactive)
SNB-75
  GI50: > 100 µM (inactive)
RXF 393
  GI50: > 100 µM (inactive)
UO-31
  GI50: > 100 µM (inactive)
ACHN
  GI50: > 100 µM (inactive)
LXFL 529
  GI50: > 100 µM (inactive)
MOLT-4
  GI50: > 100 µM (inactive)
HOP-92
  GI50: > 100 µM (inactive)
LOX IMVI
  GI50: > 100 µM (inactive)
SF-295
  GI50: > 100 µM (inactive)
NCI-H522
  GI50: > 100 µM (inactive)
HCT-15
  GI50: > 100 µM
OVCAR-8
  GI50: > 100 µM (inactive)
CAKI-1
  GI50: > 100 µM (inactive)
SK-MEL-5
  GI50: > 100 µM (inactive)
A498
  GI50: > 100 µM (inactive)
DMS-114
  GI50: > 100 µM (inactive)
SK-OV-3
  GI50: > 100 µM (inactive)
HCT-116
  GI50: > 100 µM (inactive)
OVCAR-3
  GI50: > 100 µM (inactive)
UACC-257
  GI50: > 100 µM (inactive)
NCI-H226
  GI50: > 100 µM (inactive)
HOP-18
  GI50: > 100 µM (inactive)
NCI-H460
  GI50: > 100 µM (inactive)
RXF 631
  GI50: > 100 µM (inactive)
COLO 205
  GI50: > 100 µM (inactive)
SN12C
  GI50: > 100 µM (inactive)
SNB-78
  GI50: > 100 µM (inactive)
M19-MEL
  GI50: > 100 µM (inactive)
TK-10
  GI50: > 100 µM (inactive)
CCRF-CEM
  GI50: > 100 µM (inactive)
IGROV-1
  GI50: > 100 µM (inactive)
EKVX
  GI50: > 100 µM (inactive)
SK-MEL-28
  GI50: > 100 µM (inactive)
KM12
  GI50: > 100 µM (inactive)
786-0
  GI50: > 100 µM (inactive)
K562
  GI50: > 100 µM (inactive)
HCC 2998
  GI50: > 100 µM (inactive)
M14
  GI50: > 100 µM (inactive)
SF-539
  GI50: > 100 µM (inactive)

## O=C(O)C1NCCc2c1[nH]c1ccccc21 (configuration not stated)
DMS-273
  GI50: > 100 µM (inactive)
DLD-1
  GI50: > 100 µM (inactive)
UO-31
  GI50: > 100 µM (inactive)
LXFL 529
  GI50: > 100 µM (inactive)
OVCAR-5
  GI50: > 100 µM (inactive)
LOX IMVI
  GI50: > 100 µM (inactive)
SF-295
  GI50: > 100 µM (inactive)
KM-20L2
  GI50: > 100 µM (inactive)
DMS-114
  GI50: > 100 µM (inactive)
NCI-H226
  GI50: > 100 µM (inactive)
HOP-18
  GI50: > 100 µM (inactive)
NCI-H460
  GI50: > 100 µM (inactive)
RXF 631
  GI50: > 100 µM (inactive)
SNB-78
  GI50: > 100 µM (inactive)
M19-MEL
  GI50: > 100 µM (inactive)
SK-MEL-2
  GI50: > 100 µM (inactive)
